Laboratory results from paper PMC7708446, “^18F-meta-fluorobenzylguanidine (^18F-mFBG) to monitor changes in norepinephrine transporter expression in response to therapeutic intervention in neuroblastoma models” (Scientific Reports, 2020).
Marks after values point to notes of the source that are not given here.

What was measured:
[1] = test system: Kelly xenografts; test: PET quantification of tumour uptake, Kelly xenografts; assay type: in vivo, mice
Experimental: (§1) When the tumours reached approximately 100–200 mm^3, mice were anaesthetised with an isoflurane/O2 mixture (1.5–2.0% v/v) and intravenously injected with either ^18F-mFBG (~ 7.5 MBq) or ^123I-mIBG (~ 20 MBq). Mice were then imaged using an Albira PET/SPECT/CT scanner (Bruker, Coventry, UK). Whole body PET static images were acquired after 1 and 4 h post-injection (p.i.) for 10 min with an energy window of 358 to 664 keV followed by CT acquisition. Acquisition, reconstruction and image analysis were performed as described previously. Following the final scan, the mice were sacrificed and the major organs were excised, weighed and their associated radioactivity was measured using a γ-counter. Biodistribution and image quantification were expressed as a percentage of injected dose per gram of tissue (%ID/g), whereby 1 cm^3 on PET acquisitions were assumed to equal 1 g (n ≥ 3 mice ± SD).

[2] = test system: SK-N-BE(2)C xenografts; test: Ex vivo biodistribution (γ-counter), mice bearing SK-N-BE(2)C xenografts; assay type: in vivo; settings: for ^18F-mFBG biodistribution 4 h p.i., Blood / ^18F-mFBG biodistribution 4 h p.i., Bone / ^18F-mFBG biodistribution 4 h p.i., Brown adipose / ^18F-mFBG biodistribution 4 h p.i., Heart / ^18F-mFBG biodistribution 4 h p.i., Kidney / ^18F-mFBG biodistribution 4 h p.i., Liver / ^18F-mFBG biodistribution 4 h p.i., Lungs / ^18F-mFBG biodistribution 4 h p.i., Muscle / ^18F-mFBG biodistribution 4 h p.i., Pancreas / ^18F-mFBG biodistribution 4 h p.i., Small intestine / ^18F-mFBG biodistribution 4 h p.i., Spleen / ^18F-mFBG biodistribution 4 h p.i., Tumour / ^18F-mFBG biodistribution 4 h p.i., Tumour:blood / ^18F-mFBG biodistribution 4 h p.i., Tumour:muscle: SK-N-BE(2)C
Experimental: All studies were conducted in compliance with licenses issued under the UK Animals (Scientific Procedures) Act 1986 and approved by the Institute of Cancer Research Animal Welfare and Ethical Review Body (AWERB) according to the United Kingdom National Cancer Research Institute Guidelines for Animal Welfare in Cancer Research (project license PCC916B22, Animals in Science Regulation Unit, Home Office Science, London, UK)[65]. Female Nu(NCr)-Foxn1nu mice (5–7 weeks; 20–22 g) obtained from an in-house breeding colony were used in the studies. Animals were housed in a temperature-controlled facility with 12 h on–12 h off light cycle and provided water and laboratory rodent food ad libitum. Subcutaneous xenografts were generated by injection of either Kelly (5 × 10^6/0.1 mL PBS/Matrigel 30% v/v; BD Matrigel Matrix, BD Bioscience, San Jose, California, US) or SK-N-BE(2)C (1 × 10^6/0.1 mL PBS/Matrigel) into the lower flank. For the treatment studies, AZD2014 stock solution in DMSO was diluted in PEG400 to a final concentration of 2 mg/mL (10% DMSO maximum). When tumours reached ~ 100 mm^3 (calliper measurements using formula: Volume = (Width(2) × Length)/2), mice were treated daily, for a total of either 1, 3 or 7 days, by oral gavage with AZD2014 (20 or 25 mg/kg/day) or vehicle control. Mice were monitored daily for body weight or other adverse effects.
as §1

[3] = SK-N-BE(2)C xenografts, 4 h p.i.

N=C(N)NCc1cccc([18F])c1 [^18F-mFBG, ^18F-meta-fluorobenzylguanidine]
PET tumour uptake ([1]; 1 h p.i., n = 9): 1.10 ± 0.34 %ID/g | PET tumour uptake ([1]; 4 h p.i., n = 5): 0.65 ± 0.29 %ID/g | Tumour-to-blood ratio [2, 3]: 17.69 ± 10.00 | tumour-to-muscle ratio [2, 3]: 6.24 ± 3.64 | tumour uptake ([2]; SK-N-BE(2)C xenografts, 4 h p.i., n = 5): 2.96 ± 1.38 %ID/g | ^18F-mFBG biodistribution 4 h p.i., Blood ([2]; 3 Day AZD2014 (20 mg/kg/day)): 0.16 ± 0.02 %ID/g | ^18F-mFBG biodistribution 4 h p.i., Bone ([2]; 3 Day AZD2014 (20 mg/kg/day)): 2.42 ± 2.57 %ID/g | ^18F-mFBG biodistribution 4 h p.i., Brown adipose ([2]; 3 Day AZD2014 (20 mg/kg/day)): 5.32 ± 1.51^b %ID/g | ^18F-mFBG biodistribution 4 h p.i., Heart ([2]; 3 Day AZD2014 (20 mg/kg/day)): 3.20 ± 0.43^a %ID/g | ^18F-mFBG biodistribution 4 h p.i., Kidney ([2]; 3 Day AZD2014 (20 mg/kg/day)): 0.89 ± 0.13 %ID/g | ^18F-mFBG biodistribution 4 h p.i., Liver ([2]; 3 Day AZD2014 (20 mg/kg/day)): 1.74 ± 0.23 %ID/g | ^18F-mFBG biodistribution 4 h p.i., Lungs ([2]; 3 Day AZD2014 (20 mg/kg/day)): 1.04 ± 0.12 %ID/g | ^18F-mFBG biodistribution 4 h p.i., Muscle ([2]; 3 Day AZD2014 (20 mg/kg/day)): 0.55 ± 0.09 %ID/g | ^18F-mFBG biodistribution 4 h p.i., Pancreas ([2]; 3 Day AZD2014 (20 mg/kg/day)): 1.29 ± 0.51 %ID/g | ^18F-mFBG biodistribution 4 h p.i., Small intestine ([2]; 3 Day AZD2014 (20 mg/kg/day)): 4.88 ± 1.28 %ID/g | ^18F-mFBG biodistribution 4 h p.i., Spleen ([2]; 3 Day AZD2014 (20 mg/kg/day)): 2.27 ± 1.06 %ID/g | ^18F-mFBG biodistribution 4 h p.i., Tumour ([2]; 3 Day AZD2014 (20 mg/kg/day)): 3.95 ± 1.53 %ID/g | ^18F-mFBG biodistribution 4 h p.i., Tumour:blood ([2]; 3 Day AZD2014 (20 mg/kg/day)): 23.76 ± 6.20 | ^18F-mFBG biodistribution 4 h p.i., Tumour:muscle ([2]; 3 Day AZD2014 (20 mg/kg/day)): 7.06 ± 1.79 | ^18F-mFBG biodistribution 4 h p.i., Blood ([2]; 1 day AZD2014 (20 mg/kg/day)): 0.18 ± 0.04 %ID/g | ^18F-mFBG biodistribution 4 h p.i., Bone ([2]; 1 day AZD2014 (20 mg/kg/day)): 4.55 ± 2.15^c %ID/g | ^18F-mFBG biodistribution 4 h p.i., Brown adipose ([2]; 1 day AZD2014 (20 mg/kg/day)): 5.47 ± 0.45^b %ID/g | ^18F-mFBG biodistribution 4 h p.i., Heart ([2]; 1 day AZD2014 (20 mg/kg/day)): 4.34 ± 2.38 %ID/g | ^18F-mFBG biodistribution 4 h p.i., Kidney ([2]; 1 day AZD2014 (20 mg/kg/day)): 0.98 ± 0.04 %ID/g | ^18F-mFBG biodistribution 4 h p.i., Liver ([2]; 1 day AZD2014 (20 mg/kg/day)): 1.63 ± 0.69 %ID/g | ^18F-mFBG biodistribution 4 h p.i., Lungs ([2]; 1 day AZD2014 (20 mg/kg/day)): 1.27 ± 0.68 %ID/g | ^18F-mFBG biodistribution 4 h p.i., Muscle ([2]; 1 day AZD2014 (20 mg/kg/day)): 0.59 ± 0.16 %ID/g | ^18F-mFBG biodistribution 4 h p.i., Pancreas ([2]; 1 day AZD2014 (20 mg/kg/day)): 1.09 ± 0.42 %ID/g | ^18F-mFBG biodistribution 4 h p.i., Small intestine ([2]; 1 day AZD2014 (20 mg/kg/day)): 4.79 ± 1.21 %ID/g | ^18F-mFBG biodistribution 4 h p.i., Spleen ([2]; 1 day AZD2014 (20 mg/kg/day)): 2.93 ± 0.82 %ID/g | ^18F-mFBG biodistribution 4 h p.i., Tumour ([2]; 1 day AZD2014 (20 mg/kg/day)): 3.29 ± 1.01 %ID/g | ^18F-mFBG biodistribution 4 h p.i., Tumour:blood ([2]; 1 day AZD2014 (20 mg/kg/day)): 17.72 ± 2.35 | ^18F-mFBG biodistribution 4 h p.i., Tumour:muscle ([2]; 1 day AZD2014 (20 mg/kg/day)): 5.74 ± 1.77 | ^18F-mFBG biodistribution 4 h p.i., Blood ([2]; 1 day vehicle): 0.18 ± 0.02 %ID/g | ^18F-mFBG biodistribution 4 h p.i., Bone ([2]; 1 day vehicle): 4.98 ± 2.18^c %ID/g | ^18F-mFBG biodistribution 4 h p.i., Brown adipose ([2]; 1 day vehicle): 5.14 ± 0.38^b %ID/g | ^18F-mFBG biodistribution 4 h p.i., Heart ([2]; 1 day vehicle): 4.38 ± 1.68 %ID/g | ^18F-mFBG biodistribution 4 h p.i., Kidney ([2]; 1 day vehicle): 0.79 ± 0.36 %ID/g | ^18F-mFBG biodistribution 4 h p.i., Liver ([2]; 1 day vehicle): 1.94 ± 0.30 %ID/g | ^18F-mFBG biodistribution 4 h p.i., Lungs ([2]; 1 day vehicle): 1.22 ± 0.37 %ID/g | ^18F-mFBG biodistribution 4 h p.i., Muscle ([2]; 1 day vehicle): 0.60 ± 0.13 %ID/g | ^18F-mFBG biodistribution 4 h p.i., Pancreas ([2]; 1 day vehicle): 1.01 ± 0.18 %ID/g | ^18F-mFBG biodistribution 4 h p.i., Small intestine ([2]; 1 day vehicle): 4.50 ± 0.24^b %ID/g | ^18F-mFBG biodistribution 4 h p.i., Spleen ([2]; 1 day vehicle): 3.19 ± 0.63 %ID/g
